{
  "source": "patent US5622944A",
  "about": "“Testosterone prodrugs for improved drug delivery” (Affymax Technologies N.V., priority 1995, dated 1997)",
  "key": {"[1]": {"assay": "in vitro", "assay_type": "in vitro ADME", "details": "human, serum, 37° C.", "experimental": "The hydrolytic activity of the sterol prodrug may be evaluated by studies of the chemical or enzymatic conversion of the prodrug to the unmodified parent compound, as described in Example 26.\nGenerally, the sterol/chemical modifier complex is dissolved in a minimum amount of a suitable solvent, such as ethanol, and the resulting solution is added to a sample of human serum. Following incubation, aliquots are then removed at various time points and analyzed to determine the extent of hydrolysis. Table I herein lists the representative serum half-lives of a number of testosterone prodrugs according to the present invention.\nThe rates of conversion are readily determined, for example by spectrophotometric methods or by gas-liquid or high performance liquid chromatography. Half-lives and other kinetic parameters may then be calculated using standard techniques.\nDetermination of Testosterone Prodrug Hydrolysis in Serum\nStock solutions (6 mM) of the testosterone prodrugs were prepared in ethanol (dissolution was accomplished by vortexing, sonication, or warming at 37° C., as needed). If required for dissolution, one drop of a co-solvent such as dimethylsulfoxide, dimethylformamide or methanol was added. (Acetonitrile is undesirable because it deactivates the serum enzymes).\nHPLC separation methods were established for each study by dilution of the above stock solutions (6 μl) in acetonitrile (1 ml) to form 36 μM solutions. Samples (10 μl) were injected onto a Nucleosil 5C8 column (250×4 mm ID) fitted with an additional guard column (11×4 mm ID) and eluted with a mobile phase of approximately 65% HPLC grade water and 35% trifluoroacetic acid in acetonitrile (0.1% TFA in acetonitrile). Exact proportions of the mobile phase eluents were adjusted in each case to give optimum separation and run times.\nFreshly defrosted human serum (3 ml, Sigma) was warmed at 37° C. for five minutes and then the testosterone prodrug stock solution (60 μl) was added with vortexing. […] The aliquots were added to 800 μl of 2% zinc sulfate solution in a 1.5 ml disposable microcentrifuge tube, vortexed immediately and centrifuged at 14,000 RPM for 3 minutes. The supernatants (10 μl) were injected onto the HPLC and peak areas used to determine the percent of parent drug formed or percent of prodrug remaining. Serum blanks were prepared similarly by addition of serum to the zinc sulfate solution, followed by centrifugation. Initial (time=0) samples were prepared by adding serum to the zinc sulfate solution, followed by addition of the complex and separation by centrifugation. The time=0 samples, as well as the original stock solutions, were also used to assess the stability of the complex in the absence of enzyme. Half-lives were determined using the following equation : […]\nand plotting time (x ordinate) versus the natural logarithm of percent remaining prodrug (y ordinate) to obtain the slope (m) and the y intercept (b)."}, "[2]": {"assay_type": "in vitro ADME, mouse", "details": "for Enhancement in in vitro electrotransport skin flux compared to testosterone: hairless mouse skin, vs unmodified testosterone, 'nearly 10-fold enhancement or greater'; for Flux, active electrotransport (ET): active cells (ETm), 100 uA/cm^2, 6 h", "experimental": "In vitro electrotransport of testosterone/chemical modifier complexes across hairless mouse skin was evaluated as described in Example 28. The experiments were conducted using modified Valia-Chien cells having 1.0 ml donor and 2.5 ml receptor cells. Anodic transport was carried out using a silver wire-based salt bridge in the donor compartment and a silver chloride cathode in the receptor. Cathodic transport was effected by reversing the electrode configuration. The cells were connected in series and a constant current and temperature were supplied to each cell.\nAfter a predetermined period of time (6 h), aliquots were removed from the receiver phase for immediate analysis by HPLC to determine cumulative flux.\nThe electrotransport of testosterone/chemical modifier complexes was achieved using modified Valia-Chien cells (1.0 ml donor and 2.5 ml receptor cells). Full thickness, hairless mouse skin (Charles River Labs, Wilmington, Mass.) was soaked for one hour in phosphate buffered saline (PBS, pH=7.4) before placing between each compartment (dermal side of skin facing toward receptor). One passive (P1:data) and two or more (ETm :data) active cells were used to screen each compound.\nA 10 mM (1 ml) aqueous solution of testosterone drug/prodrug was placed in the donor (unstirred) compartment and the receptor (stirred) was filled with 2.5 ml of PBS. In order to check for egress due to e.g. damaged skin, a zero hour sample of receptor ([…]) was taken one half hour after the drug solution was placed in the donor compartment. Replacement fluid of equal sample volume was added to the receptor compartment immediately after samples were taken.\nAnodic electrotransport was achieved using a silver wire (immersed in a polyvinylalcohol-based salt bridge to minimize junction potential) in the donor compartment and a AgCl cathode in the receptor. […] The electrotransport cells were connected in series and constant current (100 uA/cm^2, […] for a skin area of 0.64 cm^2) and temperature (32° C.) were supplied to each cell. After six hours of active/passive transport, aliquots (200 ul) of the receptor were sampled and immediately analyzed by HPLC.\nA standard plot of peak area and concentration for each compound was constructed using HPLC. The peak areas of the samples were determined and the concentrations calculated using the standard data. Cumulative flux was calculated using Quickbasic and reported in nmol/cm^2 /hr."}, "[3]": {"assay": "in vitro", "assay_type": "cell-based, human", "details": "human, dermal fibroblasts, MTT; for CC50 at 2 h: IC50 2 h (cytotoxicity), 2 h incubation; for CC50 at 16 h: IC50 16 h (cytotoxicity), 16 h incubation", "experimental": "(§1) As discussed above, the chemical modifier, when present in the subject in its free or released form, and in appropriately administered amounts, should preferably be non-toxic. Additionally, any further in vivo degradation products of the chemical modifier should be non-toxic, as well. Table 2 provides in vitro relative cytotoxicity data for a number of testosterone/chemical modifier complexes, prepared in accordance with the invention. The cytotoxicity assessment was carried out by examining the viability of human dermal fibroblasts in the presence of a number of testosterone/chemical modifier complexes in accordance with the present invention. Details of the experimental protocol are summarized in Example 27.\n(§2) The viability of human dermal fibroblasts in the presence of the 17-hydroxy sterol/chemical modifier compounds was assayed using MTT (3-[4,5-dimethylthiazol-2-yl]-2,5-diphenyltetrazolium bromide) reduction to formazan by mitochondrial enzymes as an indicator of cytotoxicity (Swisher, et al.). Confluent fibroblast cells were incubated for 2 or 16 hours in the presence of increasing concentrations of drug complex. At the end of the incubation period, medium was replaced for 4 hours by medium containing the tetrazolium salt, MTT. Metabolism of MTT to a blue formazan was quantitated by spectrophotometry at 540 nm."}, "[4]": {"assay": "Water solubility (H2O sol)", "details": "for solubility: H2O sol"}, "[5]": {"assay": "Steady state flux across human skin (iontophoretic)", "assay_type": "in vitro ADME", "experimental": "Another useful factor for in vitro assessment of skin permeability of a target drug or drug complex is steady state flux. Typically, when performing a kinetic analysis of the skin-penetrating ability of a target compound through a membrane, such as skin, such an analysis includes an assessment of the lag time and the steady state flux or permeation rate. The ideal membrane for such determinations is human skin.\nSteady state flux across human skin was determined for three distinct testosterone/chemical modifier complexes, as shown in FIG. 5 and in Table 4. In FIG. 5, iontophoretic flux rates over time are plotted for testosterone-17β-stachydrine ester, chloride salt [2.9], (closed circles), testosterone-17β-(L-carnitine ethyl ester) carbonate, iodide salt [1.7] (solid squares), and testosterone-17β-choline carbonate, bromide salt [1.4] (open circles). […] Steady state flux values in FIG. 5 are expressed as testosterone equivalents in units of μg/cm^2 h.\nIontophoretically-induced steady state flux across human skin was determined for three distinct testosterone/chemical modifier complexes, testosterone-17β-stachydrine ester, chloride salt [2.9], testosterone-17β-(L-carnitine ethyl ester) carbonate, iodide salt [1.7], and testosterone-17β-choline carbonate, bromide salt [1.4]. The in vitro skin flux experiments were carried out in a similar fashion to those described above, with the exception that human skin was used as the membrane.\nSteady state flux values provide an indication of the total amount of drug (or drug complex) that can penetrate the skin, under a given set of experimental conditions."}, "[6]": {"assay": "Degradation (%/d)"}, "[7]": {"system": "human dermal fibroblasts", "assay": "in vitro", "assay_type": "cell-based", "details": "MTT", "experimental": "as §1, §2"}, "[8]": {"details": "murine skin, 10 mM donor, 32° C."}},
  "note": "Where a name gives a salt, the structure may show the parent alone. Read-outs that look alike come from different tables or passages of the source.",
  "data": [
    {"smiles": "C[C@]12CC[C@H]3[C@@H](CCC4=CC(=O)CC[C@@]43C)[C@@H]1CC[C@@H]2OC(=O)OCC[N+](C)(C)C", "note": "[Code 1.4, testosterone-17β-choline carbonate, bromide salt]", "values": [
      {"measurement": "half-life", "setting": "[1]; HPLC", "result": 0.4, "unit": "h"},
      {"measurement": "Enhancement in in vitro electrotransport skin flux compared to testosterone", "setting": "[2]", "result": "≥ 10", "unit": "fold"},
      {"measurement": "Flux, active electrotransport (ET)", "setting": "[2]; [8]", "result": "20.8 ± 21.0", "unit": "nmol/cm^2 /hr"},
      {"measurement": "Flux, passive (P)", "setting": "[2]; murine skin, passive cells (P), 10 mM donor, 6 h, 32° C.", "result": "4.0 ± 0.8", "unit": "nmol/cm^2 /hr"},
      {"measurement": "CC50 at 2 h", "setting": "[3]", "result": 966, "unit": "µM"},
      {"measurement": "CC50 at 16 h", "setting": "[3]", "result": 929, "unit": "µM"},
      {"measurement": "solubility", "setting": "[4]", "result": 4, "unit": "mg/mL"},
      {"measurement": "Steady State Flux", "setting": "[5]; iontophoresis (Table 4)", "result": "68 ± 4", "unit": "nmole/cm^2 /h"},
      {"measurement": "Degradation", "setting": "[6]", "result": 0, "unit": "%/d"}
    ]},
    {"smiles": "CCOC(=O)C[C@H](C[N+](C)(C)C)OC(=O)O[C@H]1CC[C@H]2[C@@H]3CCC4=CC(=O)CC[C@]4(C)[C@H]3CC[C@]12C", "note": "[Code 1.7, testosterone-17β-(L-carnitine ethyl ester) carbonate, iodide salt]", "values": [
      {"measurement": "half-life", "setting": "[1]; sample of 82% purity", "result": 4.2, "unit": "h"},
      {"measurement": "Flux, active electrotransport (ET)", "setting": "[2]; [8]", "result": "3.6 ± 1.3", "unit": "nmol/cm^2 /hr"},
      {"measurement": "CC50 at 2 h", "setting": "[3]", "result": 913, "unit": "µM"},
      {"measurement": "CC50 at 16 h", "setting": "[3]", "result": 849, "unit": "µM"},
      {"measurement": "H2O sol", "setting": "[4]", "result": 5.3, "unit": "mg/mL"},
      {"measurement": "Steady State Flux", "setting": "[5]; iontophoresis (Table 4)", "result": "75 ± 14", "unit": "nmole/cm^2 /h"},
      {"measurement": "Degradation", "setting": "[6]", "result": 0, "unit": "%/d"}
    ]},
    {"smiles": "C[C@]12CC[C@H]3[C@@H](CCC4=CC(=O)CC[C@@]43C)[C@@H]1CC[C@@H]2OC(=O)[C@@H]1CCC[N+]1(C)C", "note": "[Code 2.9, testosterone-17β-stachydrine ester, chloride salt]", "values": [
      {"measurement": "half-life", "setting": "[1]; HPLC", "result": 13.7, "unit": "h"},
      {"measurement": "CC50 at 2 h", "setting": "[3]", "result": 2130, "unit": "µM"},
      {"measurement": "CC50 at 16 h", "setting": "[3]", "result": 750, "unit": "µM"},
      {"measurement": "solubility", "setting": "[4]", "result": 22, "unit": "mg/mL"},
      {"measurement": "Steady State Flux", "setting": "[5]; iontophoresis", "result": 184, "unit": "nmol/cm^2 /h"},
      {"measurement": "Steady state flux compared with the other two complexes (1.4, 1.7)", "setting": "[5]; iontophoresis", "result": "greater than twice that of either of the other two testosterone/chemical modifier complexes"},
      {"measurement": "Steady State Flux", "setting": "[5]; iontophoresis (Table 4)", "result": "184 ± 30", "unit": "nmole/cm^2 /h"},
      {"measurement": "Degradation", "setting": "[6]", "result": 0, "unit": "%/d"}
    ]},
    {"smiles": "CCOC(=O)C[C@H](C[N+](C)(C)C)OC(=O)O[C@H]1CC[C@H]2[C@@H]3CCC4=CC(=O)CC[C@]4(C)[C@H]3CC[C@]12C", "note": "[Code 4.1, testosterone-17β-(L-carnitine ethyl ester) carbonate, bromide salt]", "values": [
      {"measurement": "half-life", "setting": "[1]; HPLC", "result": 4, "unit": "h"},
      {"measurement": "Enhancement in in vitro electrotransport skin flux compared to testosterone", "setting": "[2]", "result": "≥ 10", "unit": "fold"},
      {"measurement": "Flux, active electrotransport (ET)", "setting": "[2]; [8]", "result": "15.7 ± 5.3", "unit": "nmol/cm^2 /hr"},
      {"measurement": "CC50", "setting": "[7]; read-out: IC50 2 h (cytotoxicity), 2 h incubation, 120 min", "result": 1400, "unit": "µM"},
      {"measurement": "CC50", "setting": "[7]; read-out: IC50 16 h (cytotoxicity), 16 h incubation, 960 min", "result": 560, "unit": "µM"},
      {"measurement": "H2O sol", "setting": "[4]", "result": 21.0, "unit": "mg/mL"},
      {"measurement": "Degradation", "setting": "[6]", "result": 1, "unit": "%/d"}
    ]}
  ]
}
